Data on 55 molecules can be found in patent US11168079B2, “Alkene compounds as farnesoid x receptor modulators” (BRISTOL-MYERS SQUIBB COMPANY, priority 2017, dated 2021).

In the first experiment the target is T1, human FXR (Homo sapiens, UniProt Q96RI1).
T1 sequence (Q96RI1 262-486 limits assumed): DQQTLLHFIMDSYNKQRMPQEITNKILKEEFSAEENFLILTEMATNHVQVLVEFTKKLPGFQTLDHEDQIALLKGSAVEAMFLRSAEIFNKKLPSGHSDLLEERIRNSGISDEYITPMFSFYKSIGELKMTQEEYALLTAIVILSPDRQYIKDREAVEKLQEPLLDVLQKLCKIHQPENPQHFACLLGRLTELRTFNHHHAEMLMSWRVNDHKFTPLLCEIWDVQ
The experiment in a line: transient human FXR/Gal4-luciferase reporter assay (HLE GAL-FXR). Particulars: FXR EC50 (nM), Gal4-hFXR fusion reporter, HEK293 cells; Table 1. On the technique in general: In a reporter assay the amount or activity of a reporter protein is the signal.
Method: A Gal4-hFXR fusion construct reporter system was used as the primary assay to characterize compound activity. A construct including 5 copies of the Gal4 promoter response element upstream of a firefly luciferase reporter cDNA was stably expressed in HEK293 cells. This reporter cell line was maintained in Dulbecco's Modified Eagle's medium (DMEM; Gibco) supplemented with 1% penicillin-streptomycin (P/S) solution, 500 μg/mL Zeocin and 10% charcoal/dextran-treated fetal bovine serum (cs-FBS) at 37° C. in a humidified 5% CO2 atmosphere. Another plasmid was constructed in which the human cytomegalovirus promoter in the pcDNA3.1 vector directs the expression of the cDNA encoding a fusion protein comprised of the DNA binding domain from the Gal4 transcription factor fused to the ligand binding domain from human FXR.
For compound testing, 100 nL of the compounds (serial dilutions in DMSO) are dispensed with an Echo acoustic dispenser (Labcyte) into the wells of a Corning/Costar clear bottom 384-well white plate. The transfected cells are harvested, counted, and diluted such that 10-25,000 cells in 25 μL are plated into each well of the 384-well compound assay plate. The compound-treated cells are incubated overnight at 37° C. in a humidified 5% CO2 atmosphere. The next morning 25 μL of Steady-Glo (Promega) are added to each well of the plate, the mixture is incubated for 15 min. with shaking, and luminescence is measured on an Envision (Perkin Elmer) plate reader.
In general, EC50 refers to the concentration at which the effect is half-maximal. `O=C(O)C1(c2ccc(N3CCC(/C=C/c4c(-c5c(Cl)cccc5Cl)noc4C4CC4)CC3)cc2)CC1` [Example 59] came in with an EC50 of 214 nM. `Clc1cccc(Cl)c1-c1noc(C2CC2)c1/C=C/C1C2CN(c3ccc(-c4nn[nH]n4)cc3)CC12` (stereo not shown) [Example 61]: the EC50 is 41 nM. Consider `FC(F)(F)Oc1ccccc1-c1noc(C2CC2)c1/C=C/C1CCN(c2ccc(-c3nn[nH]n3)cc2)CC1` [Example 62], for which the midpoint of the response, the EC50, lay at 20 nM. Same read-out and setting: the same measure for `Clc1cccc(Cl)c1-c1noc(C2CC2)c1/C=C/C1CCN(c2cccc(-c3nn[nH]n3)c2)CC1` [Example 63]: 216 nM; for `Clc1cccc(Cl)c1-c1noc(C2CC2)c1/C=C/C1CCN(c2ccc(-c3nn[nH]n3)cn2)CC1` [Example 64]: 30 nM.

The molecule `Clc1cccc(Cl)c1-c1noc(C2CC2)c1/C=C/C1C2CN(c3ccc4nc(-c5nnn[nH]5)ccc4c3)CC12` (stereo not shown) [Example 65] came in with an EC50 of 189 nM.

Consider `O=C(O)c1cc2ccc(N3CC4C(/C=C/c5c(-c6c(Cl)cccc6Cl)noc5C5CC5)C4C3)cc2nn1` (stereo not shown) [Example 66], for which it took 227 nM to reach a half-maximal effect (EC50).

On to `O=C(O)c1cc2ccc(N3CCC(/C=C/c4c(-c5ccccc5OC(F)(F)F)noc4C4CC4)CC3)cc2nn1` [Example 67], for which the concentration giving a half-maximal response (EC50) amounted to 1210 nM. Same read-out and setting: in the case of `Cn1cc(C(=O)O)c2ccc(N3CC4C(/C=C/c5c(-c6c(Cl)cccc6Cl)noc5C5CC5)C4C3)cc21` (stereo not shown) [Example 68] it was 17 nM; in that of `O=C(O)c1cnc2cc(N3CCC(/C=C/c4c(-c5c(Cl)cccc5Cl)noc4C4CC4)CC3)ccc2c1` [Example 69], 31 nM. Still for that read-out and setting: the same measure for `O=C(O)c1cc(C(F)(F)F)c2cc(N3CC4C(/C=C/c5c(-c6c(Cl)cncc6Cl)noc5C5CC5)C4C3)ccc2n1` (stereo not shown) [Example 72]: 98 nM; for `O=C(O)c1cc2ccc(N3CC4C(/C=C/c5c(-c6c(Cl)cncc6Cl)noc5C5CC5)C4C3)cc2cn1` (stereo not shown) [Example 73]: 673 nM. Molecule `O=C(O)c1cc(C(F)(F)F)c2cc(N3CC4C(/C=C/c5c(-c6ccccc6C(F)(F)F)noc5C5CC5)C4C3)ccc2n1` (stereo not shown) [Example 75] registered a concentration giving a half-maximal response (EC50) of 577 nM. In the case of `O=C(O)c1cc2ccc(N3CC4C(/C=C/c5c(-c6ccccc6C(F)(F)F)noc5C5CC5)C4C3)cc2cn1` (stereo not shown) [Example 76], the EC50 stood at 413 nM. For `O=C(O)c1cc(F)c2nc(N3CC4C(/C=C/c5c(-c6c(Cl)cncc6Cl)noc5C5CC5)C4C3)sc2c1` (stereo not shown) [Example 77], the EC50 turned out to be 786 nM. Molecule `O=C(O)c1ccc2nc(N3CC4C(/C=C/c5c(-c6c(Cl)cncc6Cl)noc5C5CC5)C4C3)sc2c1` (stereo not shown) [Example 78] came in with a concentration for a half-maximal effect (EC50) of 515 nM. In turn, `O=C(O)c1ccc2nc(N3CC4C(/C=C/c5c(-c6c(Cl)cncc6Cl)noc5C5CC5)C4C3)ccc2c1` (stereo not shown) [Example 79] gave an EC50 of 1160 nM. With `COc1cc(C(=O)O)nc2ccc(N3CC4C(/C=C/c5c(-c6c(Cl)cncc6Cl)noc5C5CC5)C4C3)cc12` (stereo not shown) [Example 80], the half-maximal effective concentration (EC50) came to 38 nM. `O=C(O)c1ccc2nc(N3CC4C(/C=C/c5c(-c6c(Cl)cccc6Cl)noc5C5CC5)C4C3)sc2n1` (stereo not shown) [Example 81] yielded an EC50 of 89 nM. Molecule `O=C(O)c1ccc2cc(N3CC4C(/C=C/c5c(-c6c(Cl)cncc6Cl)noc5C5CC5)C4C3)ccc2n1` (stereo not shown) [Example 82] came in with an EC50 of 267 nM. For `O=C(O)c1cc(C(F)(F)F)c2cc(N3CCC(/C=C/c4c(-c5c(Cl)cncc5Cl)noc4C4CC4)CC3)ccc2n1` [Example 83], the response was half-maximal at 42 nM (EC50). Still for that read-out and setting: in the case of `O=C(O)c1cc(C(F)(F)F)c2cc(N3CCC(/C=C/c4c(-c5ccncc5Cl)noc4C4CC4)CC3)ccc2n1` [Example 84] it was 215 nM; in that of `O=C(O)c1ccc2nc(N3CCC(/C=C/c4c(-c5c(Cl)cncc5Cl)noc4C4CC4)CC3)sc2n1` [Example 85], 156 nM; in that of `O=C(O)c1cnc(N2CC3C(/C=C/c4c(-c5c(Cl)cccc5Cl)noc4C4CC4)C3C2)s1` (stereo not shown) [Example 86], 1010 nM. The molecule `O=C(O)c1ccc2nc(N3CCC(/C=C/c4c(-c5ccccc5C(F)(F)F)noc4C4CC4)CC3)sc2n1` [Example 87] yielded an EC50 of 26 nM.

As for `COc1cc(C(=O)O)nc2ccc(N3CCC(/C=C/c4c(-c5c(Cl)cncc5Cl)noc4C4CC4)CC3)cc12` [Example 88], the midpoint of the response, the EC50, lay at 5 nM.

For `Cn1cc(C(=O)O)c2ccc(N3CC4C(/C=C/c5c(-c6c(Cl)cncc6Cl)noc5C5CC5)C4C3)cc21` (stereo not shown) [Example 89], the response was half-maximal at 31 nM (EC50). The molecule `O=C(O)c1cc(OC(F)F)c2cc(N3CC4C(/C=C/c5c(-c6c(Cl)cncc6Cl)noc5C5CC5)C4C3)ccc2n1` (stereo not shown) [Example 91] showed an EC50 of 4 nM.

On to `O=C(O)c1cc(OC(F)F)c2cc(N3CCC(/C=C/c4c(-c5c(Cl)cncc5Cl)noc4C4CC4)CC3)ccc2n1` [Example 92], for which the EC50 came out at 3 nM. As to `O=C(O)c1cccc2nc(N3CC4C(/C=C/c5c(-c6c(Cl)cncc6Cl)noc5C5CC5)C4C3)sc12` (stereo not shown) [Example 93], a half-maximal effect (EC50) was put at 280 nM.

Turning to `O=C(O)c1nsc2cc(N3CC4C(/C=C/c5c(-c6c(Cl)cncc6Cl)noc5C5CC5)C4C3)ccc12` (stereo not shown) [Example 95], the half-maximal effective concentration (EC50) was determined as 108 nM.

In turn, `O=C(O)c1ccc(N2CC3C(/C=C/c4c(-c5c(Cl)cncc5Cl)noc4C4CC4)C3C2)cc1` (stereo not shown) [Example 96] displayed an EC50 of 66 nM. Consider `O=C(O)c1cc(OC(F)F)c2cc(N3CCC(/C=C/c4c(-c5cccnc5C(F)(F)F)noc4C4CC4)CC3)ccc2n1` [Example 98], for which the EC50 was determined as 3 nM. `O=C(O)c1cc(OC(F)F)c2cc(N3CCC(/C=C/c4c(-c5ccccc5C(F)(F)F)noc4C4CC4)CC3)ccc2n1` [Example 99] yielded an EC50 of 3 nM.

Regarding `COc1cc(C(=O)O)nc2ccc(N3CCC(/C=C/c4c(-c5ccccc5C(F)(F)F)noc4C4CC4)CC3)cc12` [Example 100], the midpoint of the response, the EC50, lay at 4 nM.

`O=C(O)c1ccc(N2CC3C(/C=C/c4c(-c5c(Cl)cncc5Cl)noc4C4CC4)C3C2)nc1` (stereo not shown) [Example 102] displayed an EC50 of 1270 nM. For the molecule `O=C(O)c1cc2ccc(N3CCC(/C=C/c4c(-c5cccnc5C(F)(F)F)noc4C4CC4)CC3)cc2cn1` [Example 103], the EC50 came out at 189 nM. The molecule `O=C(O)c1nccc2cc(N3CCC(/C=C/c4c(-c5c(Cl)cncc5Cl)noc4C4CC4)CC3)ccc12` [Example 104] returned an EC50 of 219 nM. With `O=C(O)c1nccc2cc(N3CC4C(/C=C/c5c(-c6c(Cl)cncc6Cl)noc5C5CC5)C4C3)ccc12` (stereo not shown) [Example 105], a half-maximal response (EC50) required 310 nM. `O=C(O)c1nccc2cc(N3CCC(/C=C/c4c(-c5ccccc5OC(F)(F)F)noc4C4CC4)CC3)ccc12` [Example 106] yielded a concentration giving a half-maximal response (EC50) of 330 nM.

As for `O=C(O)c1nc2ccc(N3CC4C(/C=C/c5c(-c6c(Cl)cncc6Cl)noc5C5CC5)C4C3)cc2s1` (stereo not shown) [Example 107], the EC50 turned out to be 472 nM.

`CC(C)Oc1cc(C(=O)O)nc2ccc(N3CCC(/C=C/c4c(-c5ccccc5OC(F)(F)F)noc4C4CC4)CC3)cc12` [Example 108] returned a concentration for a half-maximal effect (EC50) of 22 nM. `CC(C)Oc1cc(C(=O)O)nc2ccc(N3CC4C(/C=C/c5c(-c6c(Cl)cncc6Cl)noc5C5CC5)C4C3)cc12` (stereo not shown) [Example 109] gave an EC50 of 25 nM. Same read-out and setting: the same measure for `CC(C)Oc1cc(C(=O)O)nc2ccc(N3CCC(/C=C/c4c(-c5ccncc5C(F)(F)F)noc4C4CC4)CC3)cc12` [Example 110]: 5 nM; for `Cc1cc(C(=O)O)nc2sc(N3CCC(/C=C/c4c(-c5c(Cl)cncc5Cl)noc4C4CC4)CC3)nc12` [Example 112]: 155 nM. Regarding `COCCOc1cc(C(=O)O)nc2ccc(N3CC4C(/C=C/c5c(-c6c(Cl)cncc6Cl)noc5C5CC5)C4C3)cc12` (stereo not shown) [Example 113], the midpoint of the response, the EC50, lay at 154 nM. Consider `COc1cc(C(=O)O)cc2sc(N3CC4C(/C=C/c5c(-c6c(Cl)cncc6Cl)noc5C5CC5)C4C3)nc12` (stereo not shown) [Example 114], for which the midpoint of the response, the EC50, lay at 131 nM. With `O=C(O)c1cc2ccc(N3CCC(/C=C/c4c(-c5ncccc5C(F)(F)F)noc4C4CC4)CC3)cc2cn1` [Example 115], the midpoint of the response, the EC50, lay at 112 nM. `O=C(O)c1cccc(-c2nc(N3CC4C(/C=C/c5c(-c6c(Cl)cncc6Cl)noc5C5CC5)C4C3)no2)c1` (stereo not shown) [Example 117] had an EC50 of 494 nM. The molecule `O=C(O)c1cnn2cc(N3CCC(/C=C/c4c(-c5ccccc5OC(F)(F)F)noc4C4CC4)CC3)ccc12` [Example 118] showed an EC50 of 276 nM.

The experiment is the same for the next values; noted with them: HLE GAL-FXR EC50, Gal4-hFXR fusion reporter, HEK293 cells.
The molecule `Clc1cccc(Cl)c1-c1noc(C2CC2)c1/C=C/C1CCN(c2ccc(-c3nnn[nH]3)cc2)CC1` [Example 56, (E)-4-(2-(1-(4-(1H-Tetrazol-5-yl)phenyl)piperidin-4-yl)vinyl)-5-cyclopropyl-3-(2,6-dichlorophenyl)isoxazole] registered an EC50 of 3 nM. In the case of `NC(=O)c1ccc(N2CC3C(/C=C/c4c(-c5c(Cl)cccc5Cl)noc4C4CC4)C3C2)cc1` (stereo not shown) [Example 70, (E)-4-(6-(2-(5-Cyclopropyl-3-(2,6-dichlorophenyl)isoxazol-4-yl)vinyl)-3-azabicyclo[3.1.0]hexan-3-yl)benzamide], a half-maximal response (EC50) required 377 nM. Turning to `CS(=O)(=O)NC(=O)c1ccc(N2CC3C(/C=C/c4c(-c5c(Cl)cccc5Cl)noc4C4CC4)C3C2)cc1` (stereo not shown) [Example 71, (E)-4-(6-(2-(5-Cyclopropyl-3-(2,6-dichlorophenyl)isoxazol-4-yl)vinyl)-3-azabicyclo[3.1.0]hexan-3-yl)-N-(methylsulfonyl)benzamide], the EC50 stood at 83 nM. `O=C(O)c1ccc(-c2nc(N3CC4C(/C=C/c5c(-c6c(Cl)cncc6Cl)noc5C5CC5)C4C3)no2)cc1` (stereo not shown) [Example 116, (E)-4-(3-(6-(2-(5-Cyclopropyl-3-(3,5-dichloropyridin-4-yl)isoxazol-4-yl)vinyl)-3-azabicyclo[3.1.0]hexan-3-yl)-1,2,4-oxadiazol-5-yl)benzoic acid] came in with a concentration giving a half-maximal response (EC50) of 862 nM.

The experiment is the same for the next values; noted with them: read-out: FXR EC50; Gal4-hFXR fusion reporter, HEK293 cells; Table 1.
Consider `Cc1cc(C(=O)O)nc2ccc(N3CC4C(/C=C/c5c(-c6c(Cl)cncc6Cl)noc5C5CC5)C4C3)cc12` (stereo not shown) [Example 111], for which the EC50 stood at 38 nM.
